Test results reported in publication PMC5053573, “Structure-Based Design of Tetrahydroisoquinoline-7-carboxamides as Selective Discoidin Domain Receptor 1 (DDR1) Inhibitors” (Journal of Medicinal Chemistry, 2016).

Columns and labels:
Assay in all cases: biochemical
Details in all cases: read-out: %Ctrl @ 1000nM
[1] = biological target: ABL1(F317I)-nonphosphorylated (Homo sapiens, UniProt P00519, F317I)
AKT3 = AKT3 (Homo sapiens, UniProt Q9Y243)
CAMK1G = CAMK1G (Homo sapiens, UniProt Q96NX5)
CAMK2B = CAMK2B (Homo sapiens, UniProt Q13554)
DCAMKL2 = biological target: T1, DCAMKL2 (Homo sapiens, UniProt Q8N568)
T1 construct: gene DCLK2

EGFR(S752-I759del) = EGFR(S752-I759del) (Homo sapiens, UniProt P00533, DEL752-759)
FGFR2 = FGFR2 (Homo sapiens, UniProt P21802)
HIPK2 = HIPK2 (Homo sapiens, UniProt Q9H2X6)
HPK1 = biological target: T2, HPK1 (Homo sapiens, UniProt Q92918)
T2 construct: gene MAP4K1

LYN = LYN (Homo sapiens, UniProt P07948)
MARK4 = MARK4 (Homo sapiens, UniProt Q96L34)
MEK3 = biological target: T3, MEK3 (Homo sapiens, UniProt P46734)
T3 construct: gene MAP2K3

MEK5 = biological target: T4, MEK5 (Homo sapiens, UniProt Q13163)
T4 construct: gene MAP2K5

MLK2 = biological target: T5, MLK2 (Homo sapiens, UniProt Q02779)
T5 construct: gene MAP3K10
T5 sequence (Q02779 whole entry): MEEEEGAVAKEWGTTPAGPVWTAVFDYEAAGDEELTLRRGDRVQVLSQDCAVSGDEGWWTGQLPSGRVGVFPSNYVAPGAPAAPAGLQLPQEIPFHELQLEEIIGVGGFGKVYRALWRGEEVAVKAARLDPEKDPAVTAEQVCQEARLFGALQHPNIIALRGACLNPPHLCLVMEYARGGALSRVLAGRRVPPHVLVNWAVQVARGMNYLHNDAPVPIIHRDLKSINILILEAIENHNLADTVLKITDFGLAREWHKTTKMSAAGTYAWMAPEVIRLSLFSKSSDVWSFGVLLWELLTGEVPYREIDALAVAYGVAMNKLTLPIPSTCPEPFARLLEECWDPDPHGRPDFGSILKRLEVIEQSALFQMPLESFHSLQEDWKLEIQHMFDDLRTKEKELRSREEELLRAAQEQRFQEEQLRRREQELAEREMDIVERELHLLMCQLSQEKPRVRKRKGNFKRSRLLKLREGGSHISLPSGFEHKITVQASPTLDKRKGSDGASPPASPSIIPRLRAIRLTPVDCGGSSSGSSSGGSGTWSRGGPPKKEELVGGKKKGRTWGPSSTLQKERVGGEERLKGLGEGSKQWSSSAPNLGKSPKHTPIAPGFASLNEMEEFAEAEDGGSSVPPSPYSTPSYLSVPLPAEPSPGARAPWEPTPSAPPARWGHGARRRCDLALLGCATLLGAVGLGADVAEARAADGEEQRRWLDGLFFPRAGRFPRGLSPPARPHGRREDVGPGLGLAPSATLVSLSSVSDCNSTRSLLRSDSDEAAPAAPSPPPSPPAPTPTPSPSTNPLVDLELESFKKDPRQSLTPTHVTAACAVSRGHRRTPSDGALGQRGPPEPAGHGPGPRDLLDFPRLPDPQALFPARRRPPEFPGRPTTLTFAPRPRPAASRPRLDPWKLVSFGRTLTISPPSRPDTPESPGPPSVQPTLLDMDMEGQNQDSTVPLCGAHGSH

NDR2 = biological target: T6, NDR2 (Homo sapiens, UniProt Q9Y2H1)
T6 construct: gene STK38L

NEK4 = NEK4 (Homo sapiens, UniProt P51957)
NEK7 = NEK7 (Homo sapiens, UniProt Q8TDX7)
NEK9 = NEK9 (Homo sapiens, UniProt Q8TD19)
NIK = biological target: T7, NIK (Homo sapiens, UniProt Q99558)
T7 construct: gene MAP3K14

NLK = NLK (Homo sapiens, UniProt Q9UBE8)
PAK7 = biological target: T8, PAK7 (Homo sapiens, UniProt Q9P286)
T8 construct: gene PAK5

PIK3CA(E542K) = PIK3CA(E542K) (Homo sapiens, UniProt P42336, E542K)
Chain of PIK3CA(E542K) (P42336 whole entry E542K): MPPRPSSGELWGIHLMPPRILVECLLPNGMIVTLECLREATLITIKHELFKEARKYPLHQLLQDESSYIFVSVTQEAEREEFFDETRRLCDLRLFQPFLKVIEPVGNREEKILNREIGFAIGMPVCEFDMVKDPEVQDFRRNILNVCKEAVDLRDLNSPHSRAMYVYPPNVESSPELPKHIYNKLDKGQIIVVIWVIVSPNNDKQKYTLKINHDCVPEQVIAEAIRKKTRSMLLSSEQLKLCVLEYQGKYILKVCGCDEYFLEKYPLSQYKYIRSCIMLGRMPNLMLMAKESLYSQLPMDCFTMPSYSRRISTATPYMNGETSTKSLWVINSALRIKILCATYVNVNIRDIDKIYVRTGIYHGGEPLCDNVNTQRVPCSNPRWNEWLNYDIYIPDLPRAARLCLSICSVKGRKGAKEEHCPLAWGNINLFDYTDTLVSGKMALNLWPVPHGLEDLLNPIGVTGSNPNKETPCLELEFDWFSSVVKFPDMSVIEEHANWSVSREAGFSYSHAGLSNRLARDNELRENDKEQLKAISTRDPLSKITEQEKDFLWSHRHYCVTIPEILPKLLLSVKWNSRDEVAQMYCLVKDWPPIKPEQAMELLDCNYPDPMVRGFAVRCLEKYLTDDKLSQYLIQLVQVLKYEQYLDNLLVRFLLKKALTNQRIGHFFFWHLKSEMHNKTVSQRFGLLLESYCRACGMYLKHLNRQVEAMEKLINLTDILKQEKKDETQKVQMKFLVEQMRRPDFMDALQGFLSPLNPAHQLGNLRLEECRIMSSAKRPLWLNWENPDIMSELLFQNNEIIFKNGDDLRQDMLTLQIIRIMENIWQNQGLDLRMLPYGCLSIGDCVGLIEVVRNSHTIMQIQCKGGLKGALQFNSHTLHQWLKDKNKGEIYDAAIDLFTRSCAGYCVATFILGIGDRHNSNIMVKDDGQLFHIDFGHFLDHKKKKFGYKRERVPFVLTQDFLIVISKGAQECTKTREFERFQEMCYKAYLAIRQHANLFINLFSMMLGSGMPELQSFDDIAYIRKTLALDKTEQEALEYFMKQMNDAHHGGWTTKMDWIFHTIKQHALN

PKAC-beta = biological target: T9, PKAC-beta (Homo sapiens, UniProt P22694)
T9 construct: gene PRKACB

PRKD2 = PRKD2 (Homo sapiens, UniProt Q9BZL6)
Chain of PRKD2 (Q9BZL6 whole entry): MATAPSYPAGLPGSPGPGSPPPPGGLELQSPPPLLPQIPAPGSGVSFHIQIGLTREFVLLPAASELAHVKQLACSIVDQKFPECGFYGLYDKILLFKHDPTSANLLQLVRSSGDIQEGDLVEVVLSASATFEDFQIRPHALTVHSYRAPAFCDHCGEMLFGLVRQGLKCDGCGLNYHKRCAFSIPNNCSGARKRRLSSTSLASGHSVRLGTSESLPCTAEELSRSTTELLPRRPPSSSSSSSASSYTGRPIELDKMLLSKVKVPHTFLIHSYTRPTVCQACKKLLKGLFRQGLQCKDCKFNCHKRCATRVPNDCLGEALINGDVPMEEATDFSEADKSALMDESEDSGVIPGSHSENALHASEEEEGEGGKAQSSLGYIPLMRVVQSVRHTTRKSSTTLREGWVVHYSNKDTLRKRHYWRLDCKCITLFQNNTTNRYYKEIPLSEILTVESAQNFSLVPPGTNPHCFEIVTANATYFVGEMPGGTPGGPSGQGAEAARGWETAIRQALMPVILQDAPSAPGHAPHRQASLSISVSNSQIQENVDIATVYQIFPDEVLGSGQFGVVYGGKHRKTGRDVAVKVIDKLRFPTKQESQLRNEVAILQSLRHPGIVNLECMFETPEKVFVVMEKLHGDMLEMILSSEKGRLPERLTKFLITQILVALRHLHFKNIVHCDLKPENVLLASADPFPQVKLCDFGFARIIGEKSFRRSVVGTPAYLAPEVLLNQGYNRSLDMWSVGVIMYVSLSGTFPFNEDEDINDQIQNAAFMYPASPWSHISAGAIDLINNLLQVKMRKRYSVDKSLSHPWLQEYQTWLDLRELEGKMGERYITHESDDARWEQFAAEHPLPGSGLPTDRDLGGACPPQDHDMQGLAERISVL

PRKD3 = PRKD3 (Homo sapiens, UniProt O94806)
PRP4 = biological target: T10, PRP4 (Homo sapiens, UniProt Q13523)
T10 construct: gene PRPF4B

ROCK1 = ROCK1 (Homo sapiens, UniProt Q13464)
ROCK2 = ROCK2 (Homo sapiens, UniProt O75116)
Chain of ROCK2 (O75116 whole entry): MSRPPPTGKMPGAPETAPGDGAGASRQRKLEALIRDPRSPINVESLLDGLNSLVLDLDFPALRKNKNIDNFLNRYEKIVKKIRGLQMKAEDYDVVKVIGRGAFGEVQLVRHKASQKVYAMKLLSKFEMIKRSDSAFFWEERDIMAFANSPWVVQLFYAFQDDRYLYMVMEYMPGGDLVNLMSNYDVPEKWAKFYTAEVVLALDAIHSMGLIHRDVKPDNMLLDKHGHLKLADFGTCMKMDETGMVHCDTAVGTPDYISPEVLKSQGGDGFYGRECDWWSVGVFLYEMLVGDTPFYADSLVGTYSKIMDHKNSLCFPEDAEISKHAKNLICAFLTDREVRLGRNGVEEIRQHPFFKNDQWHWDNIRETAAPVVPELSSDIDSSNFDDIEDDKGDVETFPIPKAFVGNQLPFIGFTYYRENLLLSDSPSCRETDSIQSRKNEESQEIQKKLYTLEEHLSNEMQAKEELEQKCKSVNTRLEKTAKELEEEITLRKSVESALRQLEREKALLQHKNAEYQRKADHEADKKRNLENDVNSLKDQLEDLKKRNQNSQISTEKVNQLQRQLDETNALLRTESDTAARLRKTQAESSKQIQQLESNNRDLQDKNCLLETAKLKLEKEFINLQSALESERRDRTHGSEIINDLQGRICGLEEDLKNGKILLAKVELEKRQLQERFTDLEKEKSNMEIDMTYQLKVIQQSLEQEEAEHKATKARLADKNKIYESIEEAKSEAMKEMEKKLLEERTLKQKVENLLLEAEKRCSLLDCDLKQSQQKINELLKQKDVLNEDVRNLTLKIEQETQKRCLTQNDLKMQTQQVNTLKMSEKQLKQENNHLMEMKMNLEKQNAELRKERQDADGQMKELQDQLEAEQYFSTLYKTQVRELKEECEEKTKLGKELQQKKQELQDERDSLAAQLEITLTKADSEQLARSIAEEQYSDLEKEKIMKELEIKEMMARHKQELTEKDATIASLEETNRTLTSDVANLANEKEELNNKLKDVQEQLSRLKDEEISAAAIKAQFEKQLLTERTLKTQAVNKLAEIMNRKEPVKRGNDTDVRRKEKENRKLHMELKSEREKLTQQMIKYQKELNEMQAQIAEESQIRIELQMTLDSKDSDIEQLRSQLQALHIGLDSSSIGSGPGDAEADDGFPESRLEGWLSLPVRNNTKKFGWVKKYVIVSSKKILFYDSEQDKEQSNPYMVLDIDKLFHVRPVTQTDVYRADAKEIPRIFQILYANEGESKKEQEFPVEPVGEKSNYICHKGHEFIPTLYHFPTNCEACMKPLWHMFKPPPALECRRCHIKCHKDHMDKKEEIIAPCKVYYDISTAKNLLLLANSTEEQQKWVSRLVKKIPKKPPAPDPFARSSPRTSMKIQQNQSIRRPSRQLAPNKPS

[2] = biological target: T11, RSK4(Kin.Dom.1-N-terminal) (Homo sapiens, UniProt Q9UK32)
T11 construct: gene RPS6KA6

SGK2 = SGK2 (Homo sapiens, UniProt Q9HBY8)
Chain of SGK2 (Q9HBY8 whole entry): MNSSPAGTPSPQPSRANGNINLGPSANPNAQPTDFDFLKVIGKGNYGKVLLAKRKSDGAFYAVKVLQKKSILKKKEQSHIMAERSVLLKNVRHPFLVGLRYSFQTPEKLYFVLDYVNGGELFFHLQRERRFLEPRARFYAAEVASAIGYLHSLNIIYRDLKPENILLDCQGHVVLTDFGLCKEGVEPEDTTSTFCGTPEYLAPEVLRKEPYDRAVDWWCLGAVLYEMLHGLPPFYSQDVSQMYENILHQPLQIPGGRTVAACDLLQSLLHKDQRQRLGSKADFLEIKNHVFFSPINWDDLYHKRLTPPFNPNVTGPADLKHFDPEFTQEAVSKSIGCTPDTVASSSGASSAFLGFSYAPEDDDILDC

SNARK = biological target: T12, SNARK (Homo sapiens, UniProt Q9H093)
T12 construct: gene NUAK2

STK35 = STK35 (Homo sapiens, UniProt Q8TDR2)
TIE1 = TIE1 (Homo sapiens, UniProt P35590)
p38-alpha = biological target: T13, p38-alpha (Homo sapiens, UniProt Q16539)
T13 construct: gene MAPK14

p38-gamma = biological target: T14, p38-gamma (Homo sapiens, UniProt P53778)
T14 construct: gene MAPK12
T14 sequence (P53778 whole entry): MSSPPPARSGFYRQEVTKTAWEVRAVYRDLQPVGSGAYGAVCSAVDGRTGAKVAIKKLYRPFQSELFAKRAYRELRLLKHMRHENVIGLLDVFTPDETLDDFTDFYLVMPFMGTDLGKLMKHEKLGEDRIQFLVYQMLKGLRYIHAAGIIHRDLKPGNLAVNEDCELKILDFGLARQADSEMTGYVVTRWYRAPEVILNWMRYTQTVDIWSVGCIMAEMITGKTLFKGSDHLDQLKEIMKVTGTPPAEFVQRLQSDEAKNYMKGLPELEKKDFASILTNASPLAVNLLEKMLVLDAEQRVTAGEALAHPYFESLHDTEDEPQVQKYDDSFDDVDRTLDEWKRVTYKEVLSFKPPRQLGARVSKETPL

Work on `Cc1cn(-c2cc(NC(=O)c3ccc4c(c3)CN(c3cncnc3)C[C@@H]4C)cc(C(F)(F)F)c2)cn1` [Compound 6j] yielded a remaining activity at 1 µM [1] of 80%, a remaining activity at 1 µM (AKT3) of 96% and a remaining activity at 1 µM (CAMK1G) of 84%. For the same molecule, the remaining activity at 1 µM (CAMK2B) was 95%, the remaining activity at 1 µM (DCAMKL2) was 100% and the remaining activity at 1 µM (EGFR(S752-I759del)) was 82%. It also gave a remaining activity at 1 µM (FGFR2) of 74%, a remaining activity at 1 µM (HIPK2) of 100% and a remaining activity at 1 µM (HPK1) of 100%. The remaining activity at 1 µM (LYN) was 100%, the remaining activity at 1 µM (MARK4) was 100% and the remaining activity at 1 µM (MEK3) was 100%. It also gave a remaining activity at 1 µM (MEK5) of 100%, a remaining activity at 1 µM (MLK2) of 98% and a remaining activity at 1 µM (NDR2) of 100%. The remaining activity at 1 µM (NEK4) was 98%, the remaining activity at 1 µM (NEK7) was 87% and the remaining activity at 1 µM (NEK9) was 85%. It also gave a remaining activity at 1 µM (NIK) of 100%, a remaining activity at 1 µM (NLK) of 61% and a remaining activity at 1 µM (PAK7) of 98%. It also gave a remaining activity at 1 µM (PIK3CA(E542K)) of 100%, a remaining activity at 1 µM (PKAC-beta) of 97% and a remaining activity at 1 µM (PRKD2) of 92%. The remaining activity at 1 µM (PRKD3) was 100%, the remaining activity at 1 µM (PRP4) was 100% and the remaining activity at 1 µM (ROCK1) was 100%. The remaining activity at 1 µM (ROCK2) was 96%, the remaining activity at 1 µM [2] was 100% and the remaining activity at 1 µM (SGK2) was 100%. It also gave a remaining activity at 1 µM (SNARK) of 100%, a remaining activity at 1 µM (STK35) of 100% and a remaining activity at 1 µM (TIE1) of 74%. It also gave a remaining activity at 1 µM (p38-alpha) of 62% and a remaining activity at 1 µM (p38-gamma) of 79%.
